Three molecules from patent US9347888B2, “Detection of bacteria exhibiting a resistance to carbapenems” (BIOMERIEUX, priority 2011, dated 2016) can be followed below.

Data set [1] concerns IR (impermeability resistance) strains. Description: Impact of cloxacillin and/or PAbetaN with faropenem, agar dilution. It counts as cell-based, Gram-negative bacteria. How it is done: (§1) Seventy-seven strains of Gram-negative bacteria, of which 71 are enterobacteria and 6 non-enterobacteria (non-fermenting bacteria), whose resistance characteristics are set out in Table VIII, were tested on media containing different concentrations of faropenem and cloxacillin, with or without PAbetaN, in order to establish the sensitivity and the specificity of each formulation. The tested media are described in Table IX.
(§2) The chromogenic media are divided into 120×120 square dishes.
(§3) The seeding is performed from 24-h pre-cultures at 37° C. on trypcase soy agar. For each strain, a 0.5 McF suspension in physiological water is produced. Each suspension is spot-seeded (1 to 2 μL) on each medium with the aid of a multi-point inoculator according to the Agar Dilution (AD) method. Readings are performed after 24 hours of incubation at 37° C.
(§4) An absence of bacterial growth or a number of colonies which is less than or equal to 3 are considered as corresponding to growth inhibition. The presence of 4 colonies or more is considered to be positive growth.
(In agar dilution the substance is mixed into plates at graded concentrations.)

In another data set the test system is Total carbapenemases. The description is as above. The note with it: cloxacillin alone (no PAbetaN), at the 3 concentrations of faropenem tested. It counts as cell-based, Gram-negative bacteria. Here is the method: as §1, §2, §3, §4
The nature of data set [2]: Test of stability of the different carbapenems in agar medium. The format is physicochemical. The note with it: agar media kept at 2 to 8°C up to 9 weeks (63 days); strains seeded D0, D14, D42, D63. Here is the method: Agar media modelled on those indicated supra were prepared and kept at a temperature of between 2 and 8° C. for up to 9 weeks (63 days).
ESBL and AmpC strains, and carbapenemases from class B, IR or KPC, were seeded on these different media on D0, D14, D42 and D63.

Data set [3] has as its system carbapenemase-producing strains. Description: Faropenem on pure strains, agar dilution: detection sensitivity. It counts as cell-based, Gram-negative bacteria. The note with it: medium containing 16 mg/L faropenem; for Detection sensitivity (strains detected/strains): 24 h 37°C. Here is the method: (§5) Seventy-nine strains of Gram-negative bacteria, of which 69 are enterobacteria and 10 non-enterobacteria (non-fermenting bacteria), whose resistance characteristics are set out in Table I, were tested on media containing different concentrations of faropenem in order to establish the sensitivity/specificity of each formulation. The dishes were read after 24 hours of incubation at 37° C.
(§6) The medium used is a conventional agar medium comprising at least one chromogenic substrate, and supplemented with faropenem at the following concentrations:
(§7) The media are divided into 120×120 square dishes.
(§8) The seeding is performed from 24-h pre-cultures at 37° C. on trypcase soy agar.
(§9) For each strain, a 0.5 McF suspension in physiological water is produced and then diluted 1/100.
(§10) Each suspension is spot-seeded (1 to 2 μL) on each medium with the aid of a multi-point inoculator according to the Agar Dilution (AD) method.
(§11) Readings are performed after 24 hours of incubation at 37° C.
(§12) For interpretation, the following cases are considered as corresponding to growth inhibition: • absence of bacterial growth • number of colonies≦3
(§13) The presence of 4 colonies or more is considered to be positive growth.

The test system of data set [4] is strains with other types of resistance (ESBL or cephalosporinase, impermeability resistance). Description: Faropenem on pure strains, agar dilution: detection specificity. The settings on record: medium containing 16 mg/L faropenem; for Detection specificity (strains inhibited/strains): 24 h 37°C. It counts as cell-based, Gram-negative bacteria. How it is done:
as §5, §6, §7, §8, §9, §10, §11, §12, §13

The test system of a further data set is KPC strains. Description: Faropenem on pure strains, agar dilution: MIC and growth of KPC strains. It counts as cell-based, Gram-negative bacteria. Here is the method:
as §5, §6, §7, §8, §9, §10, §11, §12, §13

Consider `Cc1onc(-c2ccccc2Cl)c1C(=O)N[C@@H]1C(=O)N2[C@@H]1SC(C)(C)[C@@H]2C(=O)O` [cloxacillin], for which the “additional IR strains inhibited” value in data set [1] (addition of 50 mg/L cloxacillin at 16 mg/L of faropenem) amounted to 6; in data set [1] (addition of 200 mg/L cloxacillin at 16 mg/L of faropenem) it was 9. The “impact on the growth of the carbapenemase-producing strains” value in the data set with Total carbapenemases is listed as “little or no impact”.
Turning to `C[C@@H](O)[C@H]1C(=O)N2C(C(=O)O)=C(S[C@@H]3CN[C@H](CNS(N)(=O)=O)C3)[C@H](C)[C@H]12` [doripenem], the “stability in agar medium” value in data set [2] was “close to that of ertapenem, and greater than that of imipenem and of meropenem”.
For the molecule `C[C@@H](O)[C@H]1C(=O)N2C(C(=O)O)=C([C@H]3CCCO3)S[C@H]12` [faropenem], the Detection sensitivity in data set [3] (inoculum 0.5 McF) and in data set [3] (inoculum 0.5 McF diluted 1/100) was 91.4% each time. Moreover, the “Detection sensitivity (strains detected/strains)” value in data set [3] (inoculum 0.5 McF diluted 1/100) and in data set [3] (inoculum 0.5 McF) was 53/58 in each case. The Detection specificity in data set [4] (inoculum 0.5 McF) was found to be 66.7%; in data set [4] (inoculum 0.5 McF diluted 1/100), 71.4%. Besides, the “Detection specificity (strains inhibited/strains)” value is on record as 15/21 in data set [4] (inoculum 0.5 McF diluted 1/100) and 14/21 in data set [4] (inoculum 0.5 McF). Also, the “KPC strains developing on the medium” value with KPC strains (faropenem at 16 mg/L) was “All of the KPC strains develop”. For the same molecule, the “MIC of the totality of KPC strains” value with KPC strains (whatever the inoculum tested, unit not printed (media in mg/L)) is over 32. Moreover, the “stability in agar medium” value in data set [2] is “close to that of ertapenem, and greater than that of imipenem and of meropenem”. Moreover, the “No. IR developing (/19)” value is 16 in data set [1] (PAbetaN 0, cloxacillin 0, faropenem 8 mg/L); 15 in data set [1] (PAbetaN 0, cloxacillin 0, faropenem 16 mg/L); 10 in data set [1] (PAbetaN 0, cloxacillin 0, faropenem 32 mg/L); 14 in data set [1] (PAbetaN 0, cloxacillin 50, faropenem 8 mg/L); 9 in data set [1] (PAbetaN 0, cloxacillin 50, faropenem 16 mg/L); 4 in data set [1] (PAbetaN 0, cloxacillin 50, faropenem 32 mg/L). The “No. IR developing (/19)” value in data set [1] (PAbetaN 0, cloxacillin 100, faropenem 8 mg/L) is 11; in data set [1] (PAbetaN 0, cloxacillin 100, faropenem 16 mg/L), 6; in data set [1] (PAbetaN 0, cloxacillin 100, faropenem 32 mg/L) it was 2; in data set [1] (PAbetaN 0, cloxacillin 200, faropenem 8 mg/L), 11; in data set [1] (PAbetaN 0, cloxacillin 200, faropenem 16 mg/L), 6; in data set [1] (PAbetaN 0, cloxacillin 200, faropenem 32 mg/L) it was 1. The “No. IR developing (/19)” value in data set [1] (PAbetaN 25, cloxacillin 50, faropenem 8 mg/L) is recorded as 11; in data set [1] (PAbetaN 25, cloxacillin 50, faropenem 16 mg/L), 10; in data set [1] (PAbetaN 25, cloxacillin 50, faropenem 32 mg/L), 5; in data set [1] (PAbetaN 25, cloxacillin 100, faropenem 8 mg/L) it was 10; in data set [1] (PAbetaN 25, cloxacillin 100, faropenem 16 mg/L) it was 5; in data set [1] (PAbetaN 25, cloxacillin 100, faropenem 32 mg/L), 1. The “No. IR developing (/19)” value in data set [1] (PAbetaN 25, cloxacillin 200, faropenem 8 mg/L) came to 7; in data set [1] (PAbetaN 25, cloxacillin 200, faropenem 16 mg/L) it was 1; in data set [1] (PAbetaN 25, cloxacillin 200, faropenem 32 mg/L), 1. Moreover, the “impact on IR strains” value in data set [1] (faropenem alone, up to a concentration of 16 mg/L) was “little impact”.
